≈ marks a conversion by molar mass, not a printed value. Where two headings read alike, the source gives them in different places.
Columns and labels:
X-5563 myeloma = settings: oral and subcutaneous routes; cited from earlier work
Solubility = format: physicochemical; settings: water
adenocarcinoma 755 = settings: oral and subcutaneous routes; cited from earlier work
[1] = acronycine free base; cited from earlier work
C-1498 leukemia = settings: oral and subcutaneous routes; cited from earlier work
[2] = subcutaneous; cited from earlier work
mouse neoplasms = settings: cited from earlier work
[3] = intravenous; several instances; autopsy; cited from earlier work

COc1cc2c(c3c1c(=O)c1ccccc1n3C)C=CC(C)(C)O2 [acronycine]
activity against X-5563 myeloma (X-5563 myeloma): significant activity | solubility (qualitative) (Solubility; acetone, benzene, listed as base): soluble in acetone and benzene, insoluble in water | solubility (Solubility; read-out: solubility in water): 2 to 3 µg/mL (≈ 6.22 to 9.33 µM) | activity against adenocarcinoma 755 (adenocarcinoma 755): significant activity | solubility [1]: 2 to 3 µg/mL | activity against C-1498 leukemia (C-1498 leukemia): significant activity | skin irritation or alopecia [2]: no evidence of skin irritation or alopecia | reduction in the size of tumors (mouse neoplasms; aqueous suspension, Svoboda et al): significant reductions in the size of a number of tumors | activity in delayed therapy experiments (mouse neoplasms; delayed therapy): significant activity in delayed therapy experiments | antitumor activity, intravenous (mouse neoplasms; intravenous, free base): only minimum activity | effectiveness by routes of administration (mouse neoplasms; various routes): effective by various routes of administration | tumors against which significant activity was demonstrated (mouse neoplasms; wide range of dose levels, Svoboda laboratory): 12 of 17 | blockage of the circulatory system [3]: blockage of the circulatory system was evidenced, autopsy revealing an actual aortic block by the compound itself

From patent US3943137A, “Acronycine derivatives” (University of Kansas Endowment Association, priority 1973, dated 1976)
